Measurements taken from patent US20240400518A1, “SOS1 INHIBITOR AND USE THEREOF” (KANAPH THERAPEUTICS INC., priority 2021, published 2024).

How the values were obtained:
[1] = molecular target: T1, SOS1 (Homo sapiens, UniProt Q07889); assay: SOS-catalyzed nucleotide exchange assay (HTRF, SOS1-mediated GTP loading of KRAS G12D); format: biochemical; conditions: GST-KRAS G12D, HIS-SOS1cat, IC50 class
T1 construct: adding equal amounts of HIS—SOS1cat (160 nM; Cytoskeleton, US); His (N); purchased Cytoskeleton, US
T1 sequence (Q07889 564-1049 limits assumed): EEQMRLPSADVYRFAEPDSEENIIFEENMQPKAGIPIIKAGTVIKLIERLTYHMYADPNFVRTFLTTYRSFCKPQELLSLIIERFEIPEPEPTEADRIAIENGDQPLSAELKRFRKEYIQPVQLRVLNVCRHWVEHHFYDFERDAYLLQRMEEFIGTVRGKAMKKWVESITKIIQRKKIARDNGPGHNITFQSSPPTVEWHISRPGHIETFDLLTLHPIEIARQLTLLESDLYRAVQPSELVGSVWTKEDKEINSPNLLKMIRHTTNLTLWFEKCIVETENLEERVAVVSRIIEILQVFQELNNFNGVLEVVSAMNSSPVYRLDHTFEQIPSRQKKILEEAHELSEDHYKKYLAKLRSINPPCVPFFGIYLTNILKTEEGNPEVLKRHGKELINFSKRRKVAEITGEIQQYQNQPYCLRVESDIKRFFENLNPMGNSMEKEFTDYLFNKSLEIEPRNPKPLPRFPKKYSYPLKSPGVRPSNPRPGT
Protocol: SOS1 activity was measured by SOS1-mediated GTP loading quantification of KRAS^G12D. GTP loaded KRAS^G12D was detected by HTRF (Homogeneous Time Resolved Fluorescence) using anti-GST terbium (Cisbio, France) as a donor and a fluorescence GTP analogue (EDA-GTP-DY-647P1, [DY-647P1 labeled 2′/3′-O-(2-aminoethyl-carbamoyl)guanosine-5′-triphosphate (Jena bioscience, Germany)]) as an acceptor.
Assay buffer was composed of 10 mM HEPES pH 7.4, 150 mM NaCl, 5 mM MgCl2, 1 mM DTT, 0.05% BSA Fraction V pH 7.0 (Sigma) and 0.0025% (v/v) Igepal (Sigma). KRAS^G12D working solution was prepared by adding equal amounts of GST-KRAS^G12D (100 nM) and anti-GST-terbium (2 nM; Cisbio, France) to the assay buffer and culturing on ice for 10 minutes. SOS1cat working solution was prepared by adding equal amounts of HIS—SOS1cat (160 nM; Cytoskeleton, US) and EDA-GTP-DY-647P1 (200 nM; Jena bioscience, Germany) to the assay buffer. Control solution was prepared by adding equal volumes of EDA-GTP-DY-647P1 and the assay buffer for normalization control to exclude GEF-independent GTP loading and background signals. In order to induce a reaction, 5 μL of the SOS1cat working solution or the control solution was injected into each well. 5 μL of a compound having various concentrations from 128 pM to 10 μM was added to wells containing the SOS1cat working solution and incubated at room temperature for 10 minutes to bind to SOS1.
10 μL of the KRAS^G12D solution was added to each well and incubated for 30 minutes at room temperature while shaking. HTRF was measured using a Thermo Varioskan (excitation 334 nm, emission 665 nm). The IC50 of each inhibitor was analyzed using Graphad Prism.

[2] = molecular target: T2, KRAS^G12C::SOS1 (Homo sapiens, UniProt Q07889); assay: KRAS G12C::SOS1 protein-protein interaction (PPI) inhibition assay (HTRF binding kit); conditions: max inhibitor concentration 3 μM, three replicates, IC50 class
T2 construct: purchased CISBIO, FRANCE 64KRASG12PEH
T2 sequence (Q07889 1-1333): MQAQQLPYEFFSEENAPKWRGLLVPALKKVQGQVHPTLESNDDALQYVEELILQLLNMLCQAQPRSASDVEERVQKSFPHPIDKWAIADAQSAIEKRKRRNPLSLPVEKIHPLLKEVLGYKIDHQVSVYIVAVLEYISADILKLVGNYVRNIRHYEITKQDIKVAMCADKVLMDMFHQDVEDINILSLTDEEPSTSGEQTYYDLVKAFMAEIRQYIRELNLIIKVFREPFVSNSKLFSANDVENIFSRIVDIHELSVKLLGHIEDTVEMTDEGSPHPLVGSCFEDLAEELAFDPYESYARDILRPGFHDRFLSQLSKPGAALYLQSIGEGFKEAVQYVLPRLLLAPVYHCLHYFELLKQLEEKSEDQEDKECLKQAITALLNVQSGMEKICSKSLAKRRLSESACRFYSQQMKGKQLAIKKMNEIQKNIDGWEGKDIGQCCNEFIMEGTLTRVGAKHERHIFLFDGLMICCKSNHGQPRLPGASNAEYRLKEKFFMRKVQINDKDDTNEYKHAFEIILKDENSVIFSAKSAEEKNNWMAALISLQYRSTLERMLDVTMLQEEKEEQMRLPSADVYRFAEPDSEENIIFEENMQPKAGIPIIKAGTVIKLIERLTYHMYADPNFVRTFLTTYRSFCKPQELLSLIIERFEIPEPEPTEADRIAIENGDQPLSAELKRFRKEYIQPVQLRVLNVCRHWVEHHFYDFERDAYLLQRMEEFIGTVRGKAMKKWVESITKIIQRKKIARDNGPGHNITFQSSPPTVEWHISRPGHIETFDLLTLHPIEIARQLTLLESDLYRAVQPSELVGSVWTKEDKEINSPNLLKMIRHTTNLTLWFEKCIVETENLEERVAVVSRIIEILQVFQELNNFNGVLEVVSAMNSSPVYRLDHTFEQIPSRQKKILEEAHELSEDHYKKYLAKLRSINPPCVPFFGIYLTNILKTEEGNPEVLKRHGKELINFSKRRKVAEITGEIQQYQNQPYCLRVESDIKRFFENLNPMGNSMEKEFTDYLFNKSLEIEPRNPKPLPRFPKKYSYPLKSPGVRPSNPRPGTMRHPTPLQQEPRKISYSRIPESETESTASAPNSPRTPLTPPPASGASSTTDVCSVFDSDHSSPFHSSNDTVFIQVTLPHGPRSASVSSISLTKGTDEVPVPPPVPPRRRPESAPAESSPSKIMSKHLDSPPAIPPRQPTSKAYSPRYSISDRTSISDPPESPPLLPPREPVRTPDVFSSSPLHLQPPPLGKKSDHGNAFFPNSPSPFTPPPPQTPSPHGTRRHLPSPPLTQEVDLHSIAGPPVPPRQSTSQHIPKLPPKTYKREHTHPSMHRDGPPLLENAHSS
Protocol: Protein-protein interaction between SOS1 and KRAS^G12C was detected using KRAS G12C/SOS1 binding kit from CISBIO (64KRASG12PEH, CISBIO, FRANCE) according to the manufacturer's assay method. Briefly, the maximum concentration of an inhibitor sample was set to be 3 μM, and the inhibitor sample was diluted 7 times by 1/3, and samples having a total of 8 concentrations were prepared. In HTRF (Homogeneous Time-Resolved Fluorescence) exclusive 96-well low-volume white plate (66PL96005, CISBIO, FRANCE), 2 μL of an inhibitor sample prepared for each concentration, 5 μL of a mixed solution of Tag1 labeled KRAS^G12C protein and GTP diluted with the dilution solution provided by the manufacturer, and 5 μL of Tag2 labeled SOS1 protein were mixed, and added with 8 μL of a diluted solution where anti-Tag1 KRAS^G12CXL665 (HTRF acceptor) labeled antibody and anti-Tag2 SOS1 Terbium cryptate (HTRF donor) labeled antibody were mixed in an equal ratio and cultured at room temperature for 2 hours.

IC50 [1] [nM]	IC50 [2] [nM]	SMILES
1000 to 10000		CC(=O)N1CCC(n2nc(C(=O)N[C@H](C)c3cc(N)cc(C(F)(F)F)c3)ccc2=O)CC1 [Example 118, 1-(1-acetylpiperidin-4-yl)-N-[(1R)-1-[3-amino-5-(trifluoromethyl)phenyl]ethyl]-6-oxo-1,6-dihydropyridazine-3-carboxamide]
1000 to 10000	< 1000	C[C@@H](NC(=O)c1ccc(=O)n(-c2ccc(OC(F)(F)F)cc2)n1)c1cc(N)cc(C(F)(F)F)c1 [Example 154]
